Assays:
[1] = Specific surface area by Brunauer-Emmett-Teller (B.E.T.) nitrogen absorption; type: physicochemical; conditions: crystal particles, measured by B.E.T.
Description: Specific surface area is defined in units of square meters per gram (m2/g). It is usually measured by nitrogen absorption analysis. In this analysis, nitrogen is absorbed on the surface of the substance. The amount of the absorbed nitrogen (as measured during the absorption or the subsequent desorption process) is related to the surface area via a formula known as the Brunauer Emmet Teller (B.E.T.) formula.

[2] = Particle size distribution by laser diffraction (Malvern Mastersizer); type: physicochemical; conditions: crystal particles obtained by the processes herein described
Description: As used herein, the phrase, “particle size distribution (PSD)” means the cumulative volume size distribution of equivalent spherical diameters as determined by laser diffraction at 1 bar dispersive pressure in a Sympatec Helos equipment. d10, as used herein is defined as the particle size at which the cumulative percentage undersize is 10 (i.e. the bottom 10% of particles are less than or equal to the stated size). d50 means the median particle size and d90 is defined as the particle size at which the cumulative percentage undersize is 90 (i.e. the bottom 90% of particles are less than or equal to the stated size). The particle size of eslicarbazepine acetate was measured under following conditions. [table] In accordance with the invention, the size distribution of eslicarbazepine acetate particles is determined by laser diffraction. In the present invention, the method in the determination of the size of eslicarbazepine acetate particles employed a Malvern Mastersizer laser diffraction instrument. Samples of the eslicarbazepine acetate were suspended in hexane containing a surfactant, 1% Tween80®. The suspensions were mixed and then sonicated for 120 seconds to thoroughly disperse the eslicarbazepine acetate particles. The dispersion was then circulated in the flow cell of the Malvern Mastersizer for two minutes before particle size measurements were taken.

Specific surface area [1]: about 1.37 m^2/g
Particle size distribution d 10 [2]: 5.421 μm
Particle size distribution d 50 (median particle size) [2]: 19.780 μm
Particle size distribution d 90 [2]: 168.686 μm
Compound: CC(=O)O[C@H]1Cc2ccccc2N(C(N)=O)c2ccccc21 [eslicarbazepine acetate, (S)-(−)-10-(acetyloxy)-10,11-dihydro-5H-dibenz[b,f]-azepine-5-carboxamide]

Reference: patent US20120022047A1, “PROCESS FOR THE PURIFICATION OF ESLICARBAZEPINE ACETATE” (GLENMARK GENERICS LTD, priority 2009, published 2012)
